Assays:
Rattus norvegicus [1] = organism: Rattus norvegicus; conditions: in vivo, ip
Description: Toxicity in ip dosed Sprague-Dawley rat assessed as catalepsy by Bar test

Rattus norvegicus [2] = organism: Rattus norvegicus; conditions: in vivo, ip; remark: listed apart in the source
Description: Toxicity in ip dosed Sprague-Dawley rat assessed as catalepsy by crossed-legs position test

SMILES	MED (Rattus norvegicus [1])	MED (Rattus norvegicus [2])
OC1(c2ccc(Cl)cc2)CC2CCC(C1)N2CCCSc1ccc(F)cc1 (centres undefined)	0.578 mg/kg	0.964 mg/kg
OC1(c2ccc(Cl)cc2)CC2CCC(C1)N2CCCSc1cccc(F)c1 (centres undefined)	12.7 mg/kg	12.7 mg/kg

— ChEMBL document CHEMBL3352364 (Bioorg Med Chem Lett, 2014)
